Data from PubChem BioAssay (NCI).
Values joined by “and” are separate entries in the source; they are usually repeats but may differ in a detail not shown here. Equal values may be shown once.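 Tested at 5 concentrations; 48 h exposure; 96-well plates; endpoints linearly interpolated, else capped at highest concentration. GI50 = concentration required for 50% inhibition of growth. TGI denotes the concentration required for complete inhibition of growth.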

Key:
Experiment in all cases: NCI tumour cell line growth inhibition, 48 h
CCRF-CEM leukemia = test system: CCRF-CEM leukemia
HOP-92 NSCLC = test system: HOP-92 NSCLC
KM12 colon = test system: KM12 colon
MALME-3M melanoma = test system: MALME-3M melanoma
NCI-H226 lung = test system: NCI-H226 lung
NCI-H460 lung = test system: NCI-H460 lung
RXF 393 renal = test system: RXF 393 renal
SF-539 CNS = test system: SF-539 CNS
SNB-75 CNS = test system: SNB-75 CNS
UACC-257 melanoma = test system: UACC-257 melanoma

Structure (SMILES)	GI50 (CCRF-CEM leukemia)	TGI (CCRF-CEM leukemia)	GI50 (HOP-92 NSCLC)	TGI (HOP-92 NSCLC)	GI50 (KM12 colon)	TGI (KM12 colon)	GI50 (MALME-3M melanoma)	TGI (MALME-3M melanoma)	GI50 (NCI-H226 lung)	TGI (NCI-H226 lung)	GI50 (NCI-H460 lung)	TGI (NCI-H460 lung)	GI50 (RXF 393 renal)	TGI (RXF 393 renal)	GI50 (SF-539 CNS)	TGI (SF-539 CNS)	GI50 (SNB-75 CNS)	TGI (SNB-75 CNS)	GI50 (UACC-257 melanoma)	TGI (UACC-257 melanoma)
Oc1ccccc1/C=N/Nc1nc2ccccc2s1	4.37 µM	> 100 µM	0.74 µM	19.5 µM	3.1 µM	> 100 µM	30 µM	> 100 µM	10.7 µM	> 100 µM	3.41 µM	> 100 µM	13.7 µM	39 µM	4.67 µM	> 100 µM	6.55 µM	32.2 µM	8.87 µM	> 100 µM
COc1ccc(/C=C(/C(=O)N2CCN(c3ccc(C)cc3)CC2)c2cc(OC)c(OC)c(OC)c2)cc1N	0.394 µM	> 100 µM	0.205 µM	> 100 µM	0.314 µM	> 100 µM	0.503 µM	> 100 µM	0.352 µM	> 100 µM	0.347 µM	> 44 µM	0.271 µM	> 100 µM	0.176 µM	0.717 µM	0.509 µM	> 100 µM	> 87.3 µM	> 100 µM
NC(N)=NS(=O)(=O)c1ccc(NC(=O)c2cccn3c(=O)c4ccccc4nc23)cc1	–	88 µM	–	> 100 µM	–	36 µM	–	> 100 µM	–	> 100 µM	–	> 100 µM	–	> 100 µM	–	> 100 µM	–	> 100 µM	–	58.7 µM
O=C1c2cccc3c([N+](=O)[O-])ccc(c23)C(=O)N1CCCCl	0.489 µM	3.28 µM	> 10 µM	> 10 µM	6.11 µM	> 10 µM	9.77 µM	> 10 µM	2.83 µM	> 10 µM	5.55 µM	> 10 µM	3.85 µM	> 10 µM	> 10 µM	> 10 µM	2.86 µM	> 10 µM	7.14 µM	> 10 µM
CC(C)C[C@H](NC(=O)[C@H](Cc1ccccc1)NC(=O)c1cnccn1)B(O)O	< 0.01 µM and 0.00104 µM	–	0.0015 µM	0.0196 µM and 0.00723 µM	0.00229 µM	0.0367 µM and 0.00812 µM	0.00116 µM	< 0.0454 µM and 0.0194 µM	< 0.01 µM and 0.00089 µM	< 0.01 µM and 0.00206 µM	0.0183 µM and 0.00468 µM	0.121 µM and 0.0397 µM and 0.15 µM	0.00119 µM	< 0.01 µM and 0.00255 µM	0.00119 µM	< 0.01 µM and 0.00271 µM	0.00232 µM	0.0266 µM and 0.00698 µM	0.00107 µM	0.00349 µM
C=C(c1ccccc1)[C@@]1(O)CCCC[C@H]1NC(c1ccccc1)c1ccccc1	–	18.7 µM	–	26.1 µM	–	30.9 µM	–	30.7 µM	–	22.6 µM	–	28 µM	–	22.7 µM	–	32.7 µM	–	63.6 µM	–	25.1 µM
C=C(C)[C@@H]1CC[C@]2(C(=O)N3CCN(C)CC3)CC[C@]3(C)[C@H](CC[C@@H]4[C@@]5(C)C/C(=C/c6ccncc6)[C@H](O)C(C)(C)[C@@H]5CC[C@]43C)[C@@H]12	3.3 µM	24.5 µM	2.88 µM	19.2 µM	3.86 µM	17.7 µM	2.08 µM	6.07 µM	7.01 µM	28.9 µM	3.95 µM	17 µM	2.89 µM	10.5 µM	4.12 µM	16.5 µM	51.4 µM	> 100 µM	5.45 µM	27.8 µM
